Counter-ions that a name gives are not always drawn.
Experiments:
whole complement = test: Complement Level Reduction Test, whole complement in serum of dosed guinea pigs by capillary tube assay; assay type: in vivo; settings: i.p., 200 mg/kg
Excerpt: An active inhibitor protects C2 from C1 and C4; (ii) Test, Code O35 (C3-C9 inhibitor) -- This test determines the ability of the late components of human complement (C3-C9) to lyse EAC l42 in the presence of appropriate dilutions of the test compound. An active inhibitor protects EAC 142 from lysis by human C3-C9; (iii) Test, Code 036 (C-Shunt inhibitor) -- In this test human erythrocytes rendered fragile are lysed in autologous serum via the shunt pathway activated by cobra venom factor in the presence of appropriate dilutions of the test compound. Inhibition of the shunt pathway results in failure of lysis; (iv) Forssman Vasculitis Test -- Here, the well known complement dependent lesion, Forssman vasculitis, is produced in guinea pigs by intradermal injection of rabbit anti-Forssman antiserum. The lesion is measured in terms of diameter, edema and hemorrhage and the extent to which a combined index of these is inhibited by prior intraperitoneal injection of the test compound at 200 mg/kg is then reported, unless otherwise stated; (v) Forssman Shock Test -- Lethal shock is produced in guinea pigs by an i.v. injection of anti-Forssman antiserum and the harmonic mean death time of treated guinea pigs is compared with that of simultaneous controls; (vi) Complement Level Reduction Test -- In this test, the above dosed guinea pigs, or others, are bled for serum and the complement level is determined in undiluted serum by the capillary tube method of U.S. Pat. No. 3,876,376 and compared to undosed control guinea pigs; and (vii) Cap 50 Test -- Here, appropriate amounts of the test compound are added to a pool of guinea pig serum in vitro, after which the undiluted serum capillary tube assay referred to above is run. The concentration of compound inhibiting 50% is reported.
With reference to Table I, guinea pigs weighing about 300 g were dosed intravenously (i.v.) or intraperitoneally (i.p.) with 200 mg/kg of the test compound dissolved in saline and adjusted to pH 7-8. […] Percent inhibition was calculated by comparison with simultaneous controls. […]

[1] = system: shunt pathway activated by cobra venom factor; test: Test, Code 036 (C-Shunt inhibitor), lysis of human erythrocytes in autologous serum via shunt pathway; assay type: cell-based; settings: Table I; two-fold serial dilutions
Excerpt: (§1) An active inhibitor protects C2 from C1 and C4; (ii) Test, Code O35 (C3-C9 inhibitor) -- This test determines the ability of the late components of human complement (C3-C9) to lyse EAC l42 in the presence of appropriate dilutions of the test compound. An active inhibitor protects EAC 142 from lysis by human C3-C9; (iii) Test, Code 036 (C-Shunt inhibitor) -- In this test human erythrocytes rendered fragile are lysed in autologous serum via the shunt pathway activated by cobra venom factor in the presence of appropriate dilutions of the test compound. Inhibition of the shunt pathway results in failure of lysis; (iv) Forssman Vasculitis Test -- Here, the well known complement dependent lesion, Forssman vasculitis, is produced in guinea pigs by intradermal injection of rabbit anti-Forssman antiserum. […]

Citrated sheep plasma = test: in vitro anti-coagulant activity (AC), clotting of recalcified citrated sheep plasma; assay type: biochemical
Procedure: The sheep RBC's, kept in suspension throughout the clotting incubation time, become enmeshed in the fibrin matrix if a clot forms. Upon centrifugation of the plate, untrapped RBC's form buttons, the sizes of which correspond to the degree of clot inhibition; this providing a measure of anti-coagulant activity (AC). Sodium heparin is used as a positive control and activity is reported in wells appearing in Table I.
**Activity in wells a serial dilution assay. Higher well number indicates
higher activity. The serial dilutions are two-fold.

activated human C1 [2] = target: T1, activated human C1 (Homo sapiens, UniProt P09871); test: Intrinsic Therapeutic Index (Code 026 C1 inhibitor test versus anti-coagulant test); settings: Table II
T1 sequence (P09871 16-688): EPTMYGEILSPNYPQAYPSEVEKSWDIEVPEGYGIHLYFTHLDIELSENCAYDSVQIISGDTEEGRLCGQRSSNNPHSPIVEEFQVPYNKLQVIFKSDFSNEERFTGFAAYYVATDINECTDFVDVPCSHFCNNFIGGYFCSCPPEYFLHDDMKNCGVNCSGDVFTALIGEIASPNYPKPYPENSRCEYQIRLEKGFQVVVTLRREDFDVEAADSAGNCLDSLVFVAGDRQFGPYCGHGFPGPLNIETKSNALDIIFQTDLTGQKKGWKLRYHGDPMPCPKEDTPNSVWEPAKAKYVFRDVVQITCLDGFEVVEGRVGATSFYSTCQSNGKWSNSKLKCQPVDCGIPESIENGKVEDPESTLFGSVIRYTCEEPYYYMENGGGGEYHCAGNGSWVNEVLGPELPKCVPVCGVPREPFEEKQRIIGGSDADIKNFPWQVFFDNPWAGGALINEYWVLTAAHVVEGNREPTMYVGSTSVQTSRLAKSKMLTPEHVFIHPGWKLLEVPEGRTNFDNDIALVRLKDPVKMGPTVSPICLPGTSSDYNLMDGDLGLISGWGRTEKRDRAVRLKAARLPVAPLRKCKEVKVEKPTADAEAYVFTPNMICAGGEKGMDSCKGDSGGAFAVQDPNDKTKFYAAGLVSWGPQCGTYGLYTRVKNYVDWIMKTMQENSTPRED
T1 sequence (P00736 18-705 partner): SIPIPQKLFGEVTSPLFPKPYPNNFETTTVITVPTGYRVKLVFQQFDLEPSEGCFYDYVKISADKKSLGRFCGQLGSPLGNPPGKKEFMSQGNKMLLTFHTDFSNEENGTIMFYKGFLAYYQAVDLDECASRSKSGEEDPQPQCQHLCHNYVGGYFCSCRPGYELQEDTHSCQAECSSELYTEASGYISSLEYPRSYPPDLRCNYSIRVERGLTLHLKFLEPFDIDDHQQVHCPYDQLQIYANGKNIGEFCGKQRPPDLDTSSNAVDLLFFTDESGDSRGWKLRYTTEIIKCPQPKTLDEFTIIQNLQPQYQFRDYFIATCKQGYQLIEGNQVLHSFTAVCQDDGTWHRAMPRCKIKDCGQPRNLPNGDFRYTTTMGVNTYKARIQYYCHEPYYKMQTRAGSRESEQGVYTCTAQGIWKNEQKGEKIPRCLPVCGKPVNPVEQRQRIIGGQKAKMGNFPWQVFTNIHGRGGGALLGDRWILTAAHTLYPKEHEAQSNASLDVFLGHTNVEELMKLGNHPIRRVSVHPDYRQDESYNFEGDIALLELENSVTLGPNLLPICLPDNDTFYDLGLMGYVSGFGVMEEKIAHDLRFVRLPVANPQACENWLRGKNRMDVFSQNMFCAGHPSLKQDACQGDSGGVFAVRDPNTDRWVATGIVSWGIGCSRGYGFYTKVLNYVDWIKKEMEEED
T1 sequence (P02745 23-245 partner): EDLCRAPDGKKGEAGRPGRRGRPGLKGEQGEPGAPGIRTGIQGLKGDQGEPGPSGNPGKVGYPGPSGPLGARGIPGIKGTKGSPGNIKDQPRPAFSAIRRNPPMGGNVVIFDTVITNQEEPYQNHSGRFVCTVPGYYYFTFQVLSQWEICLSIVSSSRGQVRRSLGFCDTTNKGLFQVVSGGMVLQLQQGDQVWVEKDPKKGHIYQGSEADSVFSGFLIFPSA
T1 sequence (P02746 28-253 partner): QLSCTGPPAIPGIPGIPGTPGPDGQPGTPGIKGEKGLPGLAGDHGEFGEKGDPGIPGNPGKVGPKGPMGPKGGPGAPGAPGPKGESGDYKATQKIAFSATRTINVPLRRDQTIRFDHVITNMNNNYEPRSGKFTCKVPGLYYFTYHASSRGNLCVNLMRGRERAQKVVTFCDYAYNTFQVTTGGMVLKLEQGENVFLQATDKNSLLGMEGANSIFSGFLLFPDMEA
T1 sequence (P02747 29-245 partner): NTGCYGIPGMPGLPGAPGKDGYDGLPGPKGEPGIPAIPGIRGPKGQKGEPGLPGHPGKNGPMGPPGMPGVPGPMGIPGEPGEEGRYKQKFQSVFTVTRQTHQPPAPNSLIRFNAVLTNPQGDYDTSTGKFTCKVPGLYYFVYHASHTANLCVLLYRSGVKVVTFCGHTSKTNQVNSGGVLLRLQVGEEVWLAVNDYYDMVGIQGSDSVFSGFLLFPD
Excerpt: The computation of an Intrinsic Therapeutic Index (ITI) was devised to correlate the results expressed in wells, obtained in the in vitro Code 026 (C1 inhibitor) test and the in vitro anti-coagulant (AC) test into a meaningful value which would aid in the net evaluation of the activity of the compounds of this invention.
The ITI is thus a measure of the separation of anti-complement and anti-coagulant activities; the higher the numerical value the more therapeutically useful the separation of activities.

activated human C1 [3] = target: T1, activated human C1; test: Test, Code 026 (C1 inhibitor); assay type: biochemical; settings: Table II; highest active serial dilution
Excerpt: as §1

[4] = system: hereditary angioneurotic edema; settings: New England Journal of Medicine, 286, 808-812 (1972); cited from earlier work
complement system = settings: literature; cited from earlier work
[5] = system: human serum total hemolytic complement; settings: in vitro and in vivo, reduction in total hemolytic complement activity; Pathologie Biologie, 25, 33-36 (1977); cited from earlier work

O=C(Nc1cc(NC(=O)Nc2cc(C(=O)O)cc(C(=O)O)c2)cc(NC(=O)Nc2cc(C(=O)O)cc(C(=O)O)c2)c1)Nc1cc(C(=O)O)cc(C(=O)O)c1 [5,5',5"-(s-Phenenyltriureylene)triisophthalic acid hexasodium salt]
In Vivo Activity (Guinea Pig) % Inhibition, Intraperitoneal, 30 mins. (whole complement; 30 mins.): -43% | In Vivo Activity (Guinea Pig) % Inhibition, Intraperitoneal, 60 mins. (whole complement; 60 mins.): -9% | In Vivo Activity (Guinea Pig) % Inhibition, Intraperitoneal, 120 mins. (whole complement; 120 mins.): -41% | Shunt Inhibition 036 Wells [1]: +1 Wells | AC Wells (Citrated sheep plasma; Table I, anti-coagulant activity, two-fold serial dilutions): < -2 Wells | In Vitro Activity, Anti-Coagulant Activity (Wells) AC (Citrated sheep plasma; Table II, highest active serial dilution): -2 Wells | Intrinsic Therapeutic Index (activated human C1 [2]; antilogarithm (base 2) of the difference in wells): 256 | Logarithmic Difference Expressed as Wells (activated human C1 [2]; log (base 2) difference Code 026 minus AC): +8 Wells | In Vitro Activity, Complement Inhibiting Activity (Wells) Code 026 (activated human C1 [3]): +6 Wells

Cc1ccc(C(=O)Nc2ccc(S(=O)(=O)O)c3cc(S(=O)(=O)O)cc(S(=O)(=O)O)c23)cc1NC(=O)c1cccc(NC(=O)Nc2cccc(C(=O)Nc3cc(C(=O)Nc4ccc(S(=O)(=O)O)c5cc(S(=O)(=O)O)cc(S(=O)(=O)O)c45)ccc3C)c2)c1 [Suramin]
use in treatment of hereditary angioneurotic edema [4]: used with success | anticomplementary effect / complement inhibition (complement system): competitive inhibitor of the complement system

Nc1ccc2cc(S(=O)(=O)O)cc(O)c2c1N=Nc1ccc(NC(=O)Nc2ccc(N=Nc3c(N)ccc4cc(S(=O)(=O)O)cc(O)c34)c(S(=O)(=O)O)c2)cc1S(=O)(=O)O [chlorazol fast pink, 3,3'-ureylenebis-[6-(2-amino-8-hydroxy-6-sulfo-1-naphthylazo)]benzenesulfonic acid, tetrasodium salt]
anticomplementary effect / complement inhibition (complement system): anticomplementary effect

NCCCCCC(=O)O [epsilon-aminocaproic acid]
use in treatment of hereditary angioneurotic edema [4]: used with success

NC[C@H]1CC[C@H](C(=O)O)CC1 [tranexamic acid]
use in treatment of hereditary angioneurotic edema [4]: used with success

heparin
anticomplementary effect / complement inhibition (complement system): anticomplementary effect

pentosan-poly-sulfoester
anticomplementary activity on human serum [5]: anticomplementary activity on human serum both in vitro and in vivo

From patent US4118418A, “5-Phenenyltris (ureylene) triisophthalic acid salts” (American Cyanamid Company, priority 1977, dated 1978)
